Results reported in ChEMBL document CHEMBL1795338, “Identification of pentacyclic triterpenes derivatives as potent inhibitors against glycogen phosphorylase based on 3D-QSAR studies” (Eur J Med Chem, 2011).

What follows are compounds tested against T1, Glycogen phosphorylase, muscle form (Oryctolagus cuniculus, UniProt P00489) (assay: Inhibition of rabbit muscle glycogen phosphorylase A assessed as release of phosphate from glucose-1-phosphate after 25 mins by microplate reader based method).
T1 sequence (P00489 whole entry): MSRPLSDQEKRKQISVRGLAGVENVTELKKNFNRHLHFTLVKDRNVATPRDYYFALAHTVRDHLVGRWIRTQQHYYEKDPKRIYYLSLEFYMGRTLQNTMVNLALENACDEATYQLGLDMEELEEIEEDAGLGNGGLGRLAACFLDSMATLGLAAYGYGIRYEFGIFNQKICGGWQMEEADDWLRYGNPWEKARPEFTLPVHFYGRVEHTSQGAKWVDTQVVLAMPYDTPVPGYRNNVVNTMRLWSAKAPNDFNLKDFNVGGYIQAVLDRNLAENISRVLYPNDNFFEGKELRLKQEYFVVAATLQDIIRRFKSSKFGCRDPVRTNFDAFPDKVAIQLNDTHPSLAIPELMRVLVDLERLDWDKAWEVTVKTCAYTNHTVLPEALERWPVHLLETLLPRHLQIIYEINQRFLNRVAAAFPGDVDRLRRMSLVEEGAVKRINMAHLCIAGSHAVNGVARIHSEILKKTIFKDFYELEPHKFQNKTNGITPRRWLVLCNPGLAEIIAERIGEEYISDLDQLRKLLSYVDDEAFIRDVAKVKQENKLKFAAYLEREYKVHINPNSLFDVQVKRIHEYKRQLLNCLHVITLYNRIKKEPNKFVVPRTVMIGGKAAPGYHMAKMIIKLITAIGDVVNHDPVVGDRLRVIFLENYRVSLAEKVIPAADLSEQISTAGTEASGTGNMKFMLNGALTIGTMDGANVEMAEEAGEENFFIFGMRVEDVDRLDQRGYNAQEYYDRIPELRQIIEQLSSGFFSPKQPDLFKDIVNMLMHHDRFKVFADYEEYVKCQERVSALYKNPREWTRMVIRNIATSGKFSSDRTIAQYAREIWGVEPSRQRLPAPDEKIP

SMILES	IC50
CC1(C)CC[C@]2(C(=O)O)CC[C@]3(C)C(=CC[C@@H]4[C@@]5(C)C[C@@H](O)CC(C)(C)[C@@H]5CC[C@]43C)[C@@H]2C1	16.1 µM
CC1(C)CC[C@]2(C(=O)O)CC[C@]3(C)C(=CC[C@@H]4[C@@]5(C)C[C@H](O)CC(C)(C)[C@@H]5CC[C@]43C)[C@@H]2C1	22.7 µM
CO[C@H]1O[C@H](Cn2cc(COC(=O)[C@]34CCC(C)(C)C[C@H]3C3=CC[C@@H]5[C@@]6(C)CC[C@H](O)C(C)(C)[C@@H]6CC[C@@]5(C)[C@]3(C)CC4)nn2)[C@@H](O)[C@H](O)[C@H]1O	1.14 µM
CC(=O)OCCCCCCOC(=O)[C@H](O)CC(=O)OCCCCCCOC(=O)[C@]12CCC(C)(C)C[C@H]1C1=CC[C@@H]3[C@@]4(C)CC[C@H](O)C(C)(C)[C@@H]4CC[C@@]3(C)[C@]1(C)CC2	12.3 µM
CC(=O)OCc1cn(CCCCCCn2cc(COC(=O)[C@]34CCC(C)(C)C[C@H]3C3=CC[C@@H]5[C@@]6(C)CC[C@H](O)C(C)(C)[C@@H]6CC[C@@]5(C)[C@]3(C)CC4)nn2)nn1	20.7 µM
CC1(C)CC[C@]2(C(=O)OCc3ccccc3)CC[C@]3(C)C(=CC[C@@H]4[C@@]5(C)CC[C@H](OC(=O)CCl)C(C)(C)[C@@H]5CC[C@]43C)[C@@H]2C1	12.6 µM
CC1(C)CC[C@]2(C(=O)OCc3ccccc3)CC[C@]3(C)C(=CC[C@@H]4[C@@]5(C)CC[C@H](OC(=O)CN=[N+]=[N-])C(C)(C)[C@@H]5CC[C@]43C)[C@@H]2C1	12.7 µM
CCN(CC)CC(=O)O[C@H]1CC[C@]2(C)[C@H]3CC=C4[C@@H]5CC(C)(C)CC[C@]5(C(=O)OCc5ccccc5)CC[C@@]4(C)[C@]3(C)CC[C@H]2C1(C)C	20.1 µM
CC1(C)CC[C@]2(C(=O)OCc3ccccc3)CC[C@]3(C)C(=CC[C@@H]4[C@@]5(C)CC[C@H](OC(=O)c6ccc([N+](=O)[O-])cc6)C(C)(C)[C@@H]5CC[C@]43C)[C@@H]2C1	16.1 µM
CC1(C)CC[C@]2(C(=O)OCc3ccccc3)CC[C@]3(C)C(=CC[C@@H]4[C@@]5(C)CC[C@H](OC(=O)c6ccc(N)cc6)C(C)(C)[C@@H]5CC[C@]43C)[C@@H]2C1	2.13 µM
CC1(C)CC[C@]2(C(=O)OCc3ccccc3)CC[C@]3(C)C(=CC[C@@H]4[C@@]5(C)CC[C@H](OC(=O)[n+]6ccccc6)C(C)(C)[C@@H]5CC[C@]43C)[C@@H]2C1	5.39 µM
CC1(C)CC[C@]2(C(=O)OCc3ccccc3)CC[C@]3(C)C(=CC[C@@H]4[C@@]5(C)CC[C@H](OC(=O)Cn6cc(COC(=O)Cc7ccccc7)nn6)C(C)(C)[C@@H]5CC[C@]43C)[C@@H]2C1	27.7 µM
CCCCCCCCCCCC(=O)OCc1cn(CC(=O)O[C@H]2CC[C@]3(C)[C@H]4CC=C5[C@@H]6CC(C)(C)CC[C@]6(C(=O)OCc6ccccc6)CC[C@@]5(C)[C@]4(C)CC[C@H]3C2(C)C)nn1	7.76 µM
COC(=O)[C@H](Cc1ccc(OCc2cn(CC(=O)O[C@H]3CC[C@]4(C)[C@H]5CC=C6[C@@H]7CC(C)(C)CC[C@]7(C(=O)OCc7ccccc7)CC[C@@]6(C)[C@]5(C)CC[C@H]4C3(C)C)nn2)cc1)NC(=O)OC(C)(C)C	17.5 µM
CC(=O)O[C@H]1CC[C@]2(C)[C@H]3CC=C4[C@@H]5CC(C)(C)CC[C@]5(C(=O)OC[C@H](O)[C@H]5OC(=O)C(O)=C5O)CC[C@@]4(C)[C@]3(C)CC[C@H]2C1(C)C	2.23 µM
CC(=O)NCCNCCNC(=O)[C@]12CCC(C)(C)C[C@H]1C1=CC[C@@H]3[C@@]4(C)CC[C@H](OC(C)=O)C(C)(C)[C@@H]4CC[C@@]3(C)[C@]1(C)CC2	3.25 µM
C[C@H]1[C@H](C)CC[C@]2(C(=O)OCCBr)CC[C@]3(C)C(=CC[C@@H]4[C@@]5(C)CC[C@H](O)C(C)(C)[C@@H]5CC[C@]43C)[C@H]12	10.2 µM
C[C@H]1[C@H](C)CC[C@]2(C(=O)OCCNC3CCCCC3)CC[C@]3(C)C(=CC[C@@H]4[C@@]5(C)CC[C@H](O)C(C)(C)[C@@H]5CC[C@]43C)[C@H]12	25.6 µM
CC(=O)O[C@H]1CC[C@]2(C)[C@H]3CC=C4[C@@H]5[C@@H](C)[C@H](C)CC[C@]5(C(=O)OC[C@H](O)[C@H]5OC(=O)C(O)=C5O)CC[C@@]4(C)[C@]3(C)CC[C@H]2C1(C)C	1.53 µM
CC1(C)CC[C@]2(C(=O)O)CC[C@]3(C)C(=CC[C@@H]4[C@@]5(C)CC[C@H](OC(=O)Cn6cc(COC(=O)Cc7ccccc7)nn6)C(C)(C)[C@@H]5CC[C@]43C)[C@@H]2C1	30.9 µM
COCc1cn(CCCCCCn2cc(CO[C@H]3CC[C@]4(C)[C@H]5CC=C6[C@@H]7CC(C)(C)CC[C@]7(C(=O)O)CC[C@@]6(C)[C@]5(C)CC[C@H]4C3(C)C)nn2)nn1	2.59 µM

SMILES	IC50
C[C@H]1[C@H](C)CC[C@]2(C(=O)O)CC[C@]3(C)C(=CC[C@@H]4[C@@]5(C)C[C@H](O)CC(C)(C)[C@@H]5CC[C@]43C)[C@H]12	20.6 µM
CC1(C)CC[C@]2(C(=O)OCc3ccccc3)CC[C@]3(C)C(=CC[C@@H]4[C@@]5(C)C[C@H](O)[C@@H](O)C(C)(C)[C@@H]5CC[C@]43C)[C@@H]2C1	6.59 µM
CC(=O)O[C@@H]1O[C@H](OC(=O)[C@]23CCC(C)(C)C[C@H]2C2=CC[C@@H]4[C@@]5(C)C[C@@H](O)[C@H](O)C(C)(C)[C@@H]5CC[C@@]4(C)[C@]2(C)CC3)[C@@H](OC(C)=O)[C@H](OC(C)=O)[C@H]1OC(C)=O	18.6 µM
CCC(=O)O[C@@H]1C[C@]2(C)[C@H]3CC=C4[C@@H]5CC(C)(C)CC[C@]5(C(=O)O)CC[C@@]4(C)[C@]3(C)CC[C@H]2C(C)(C)[C@H]1OC(=O)CC	10.5 µM
CCCC(=O)O[C@@H]1C[C@]2(C)[C@H]3CC=C4[C@@H]5CC(C)(C)CC[C@]5(C(=O)O)CC[C@@]4(C)[C@]3(C)CC[C@H]2C(C)(C)[C@H]1OC(=O)CCC	25.2 µM
C[C@H]1[C@H](C)CC[C@]2(C(=O)OCc3ccccc3)CC[C@]3(C)C(=CC[C@@H]4[C@@]5(C)C[C@H](O)[C@@H](O)C(C)(C)[C@@H]5CC[C@]43C)[C@H]12	1.25 µM
COC(=O)[C@H](Cc1ccccc1)NC(=O)[C@]12CC[C@@H](C)[C@H](C)[C@H]1C1=CC[C@@H]3[C@@]4(C)C[C@@H](OC(C)=O)[C@H](OC(C)=O)C(C)(C)[C@@H]4CC[C@@]3(C)[C@]1(C)CC2	23.9 µM
COC(=O)[C@H](Cc1ccc(O)cc1)NC(=O)[C@]12CC[C@@H](C)[C@H](C)[C@H]1C1=CC[C@@H]3[C@@]4(C)C[C@@H](OC(C)=O)[C@H](OC(C)=O)C(C)(C)[C@@H]4CC[C@@]3(C)[C@]1(C)CC2	11.2 µM
CC1(C)CC[C@]2(C(=O)O)CC[C@]3(C)[C@H]([C@@H](O)C[C@@H]4[C@@]5(C)CC[C@H](O)C(C)(C)[C@@H]5CC[C@]43C)[C@@H]2C1	3.07 µM
CC1(C)CC[C@]2(C(=O)OCc3ccccc3)CC[C@]3(C)[C@H]([C@@H](O)C[C@@H]4[C@@]5(C)CC[C@H](O)C(C)(C)[C@@H]5CC[C@]43C)[C@@H]2C1	6.54 µM
CC1(C)CC[C@]2(C(=O)OCc3ccccc3)CC[C@]3(C)[C@H]([C@H](O)C[C@@H]4[C@@]5(C)CC[C@H](O)C(C)(C)[C@@H]5CC[C@]43C)[C@@H]2C1	5.35 µM
CC1(C)CC[C@]2(C(=O)OCC(=O)O)CC[C@]3(C)C(=CC[C@@H]4[C@@]5(C)CC[C@H](O)C(C)(C)[C@@H]5CC[C@]43C)[C@@H]2C1	62.6 µM
CCOC(=O)CCCOC(=O)[C@]12CCC(C)(C)C[C@H]1C1=CC[C@@H]3[C@@]4(C)CC[C@H](O)C(C)(C)[C@@H]4CC[C@@]3(C)[C@]1(C)CC2	76.7 µM
CNCCOC(=O)[C@]12CCC(C)(C)C[C@H]1C1=CC[C@@H]3[C@@]4(C)CC[C@H](O)C(C)(C)[C@@H]4CC[C@@]3(C)[C@]1(C)CC2	53.2 µM
C[C@H]1[C@H](C)CC[C@]2(C(=O)OCC(=O)O)CC[C@]3(C)C(=CC[C@@H]4[C@@]5(C)CC[C@H](O)C(C)(C)[C@@H]5CC[C@]43C)[C@H]12	188 µM
CCOC(=O)COC(=O)[C@]12CC[C@@H](C)[C@H](C)[C@H]1C1=CC[C@@H]3[C@@]4(C)CC[C@H](O)C(C)(C)[C@@H]4CC[C@@]3(C)[C@]1(C)CC2	4.1 µM
CC1(C)CC[C@]2(C(=O)O)CC[C@]3(C)C(=CC[C@@H]4[C@@]5(C)CC[C@H](OC(=O)/C=C\c6ccc(Cl)cc6)C(C)(C)[C@@H]5CC[C@]43C)[C@@H]2C1	3.3 µM
COc1ccc(/C=C\C(=O)O[C@H]2CC[C@]3(C)[C@H]4CC=C5[C@@H]6CC(C)(C)CC[C@]6(C(=O)O)CC[C@@]5(C)[C@]4(C)CC[C@H]3C2(C)C)cc1	16.9 µM
CC(=O)O[C@@H]1C[C@]2(C)[C@H]3CC=C4[C@@H]5CC(C)(C)CC[C@]5(C(=O)O)CC[C@@]4(C)[C@]3(C)CC[C@H]2C(C)(C)[C@H]1OC(C)=O	13.3 µM
CC1(C)CC[C@]2(C(=O)O)CC[C@]3(C)C(=CC[C@@H]4[C@@]5(C)Cc6nc7ccccc7nc6C(C)(C)[C@@H]5CC[C@]43C)[C@@H]2C1	14 µM
CC1(C)CC[C@]2(C(=O)O)CC[C@]3(C)C(=CC[C@@H]4[C@@]5(C)Cc6nccnc6C(C)(C)[C@@H]5CC[C@]43C)[C@@H]2C1	25.1 µM
